Assay results reported in patent US20050070595A1, “Trioxane derivatives as antimalaria or anticancer compounds” (priority 2001, published 2005).
pIC50: −log10 of the molar value. Values joined by “and” are separate entries in the source; they are usually repeats but may differ in a detail not shown here. Equal values may be shown once. Read-outs that look alike come from different tables or passages of the source.

Test system: chloroquine-resistant K1 strain of P. falciparum
Assay: 48-h sensitivity assay, [3H]-hypoxanthine incorporation as an assessment of parasite growth
Format: cell-based
Experimental: The antimalarial activity of the new dimers was tested against the chloroquine-resistant K1 strain of P. falciparum. A single uncloned K1, chloroquine resistant strain of P. falciparum from Thailand was used. Parasites were maintained in continuous culture using the method of Trager and Jenson. (J. Parasitol, 1977, 63, […]). Cultures were grown in flasks containing human erythrocytes (2-5%) with parasitemia in the range of 1% to 10% suspended in RPMI 1640 medium supplemented with 25 mM HEPES and 32 mM NaHCO3, and 10% human serum (complete medium). Cultures were gassed with a mixture of 3% O2, 4% CO2 and 93% N2.
Antimalarial activity was assessed with an adaption of the 48-h sensitivity assay of Desjardins et al. (Antimicrob. Agents. Chemother., 1979, 16, 710-718) using [^3H]-hypoxanthine incorporation as an assessment of parasite growth. Stock drug solutions were prepared in 100% dimethylsulphoxide (DMSO) and diluted to the appropriate concentration using complete medium. Assays were performed in sterile 96-well microtitre plates, each plate containing 200 μl of parasite culture (2% parasitemia, 0.5% haematocrit) with or without 10 μl drug dilutions. Each drag was tested in triplicate and parasite growth was compared to control wells (which constituted 100% parasite growth). After 24-h incubation at 37° C., 0.5 μCi hypoxanthine was added to each well. Cultures were incubated for a further 24 h before they were harvested onto filter-mats, dried for 1 h at 55° C. and counted using a Wallac 1450 Microbeta Trilux Liquid scintillation and luminescence counter. IC50 values were calculated by interpolation of the probit transformation of the log dose—response curve.

[1] = mean of the determinations, K1 strain, 48 h, read-out: Mean IC50
[2] = single determinations (triplicate), K1 strain, 48 h, read-out: IC50
[3] = Plasmodium falciparum, K1, 48 h, mean of the determinations, K1 strain, 48 h, read-out: Mean IC50

Row | Compound | pIC50 [1] | pIC50 [2] | other results
1 | 10β-(2-Hydroxyethyl)-deoxoartemisinin bis-ester (1,2)-dimer [PV30] | 8.59 |  | 
2 | CC1CCC2C(C)C(CCOP(=O)(OCCC3OC4OC5(C)CCC6C(C)CCC(C3C)C46OO5)Oc3ccccc3)OC3OC4(C)CCC1C32OO4 (stereo not shown) [PV37] | 9.30 |  | 
3 | C[C@H]1[C@@H](CCOCc2cccc(COCC[C@H]3O[C@@H]4O[C@]5(C)CC[C@H]6[C@H](C)CC[C@@H]([C@H]3C)[C@@]46OO5)c2)O[C@@H]2O[C@]3(C)CC[C@H]4[C@H](C)CC[C@@H]1[C@@]24OO3 [PV43] | 8.54 |  | 
4 | C[C@H]1[C@@H](CCOC(=O)c2cccc(C(=O)OCC[C@H]3O[C@@H]4O[C@]5(C)CC[C@H]6[C@H](C)CC[C@@H]([C@H]3C)[C@@]46OO5)c2)O[C@@H]2O[C@]3(C)CC[C@H]4[C@H](C)CC[C@@H]1[C@@]24OO3 [PV31, 10β-(2-hydroxyethyl)-deoxoartemisininbis-ester(1,3)-dimer] | 7.37 | 7.40 and 7.36 | 
5 | C[C@H]1[C@@H](CCOCc2ccc(COCC[C@H]3O[C@@H]4O[C@]5(C)CC[C@H]6[C@H](C)CC[C@@H]([C@H]3C)[C@@]46OO5)cc2)O[C@@H]2O[C@]3(C)CC[C@H]4[C@H](C)CC[C@@H]1[C@@]24OO3 [PV41] | 8.62 | 8.59 and 8.51 and 8.80 | 
6 | CC1CCC2C(C)C(CCOC(=O)CCCC(=O)OCCC3OC4OC5(C)CCC6C(C)CCC(C3C)C46OO5)OC3OC4(C)CCC1C32OO4 (stereo not shown) [PV35] | 8.62 | 8.59 and 8.51 and 8.80 | 
7 | C[C@H]1[C@@H](CCOC(=O)CCC(=O)OCC[C@H]2O[C@@H]3O[C@]4(C)CC[C@H]5[C@H](C)CC[C@@H]([C@H]2C)[C@@]35OO4)O[C@@H]2O[C@]3(C)CC[C@H]4[C@H](C)CC[C@@H]1[C@@]24OO3 [PV33] | 8.74 |  | 
8 | CCN(CC)CCCC(C)Nc1ccnc2cc(Cl)ccc12 (stereo not shown) [Chloroquine, chloroquine, reference compound] |  |  | pIC50 (Plasmodium falciparum, K1, 48 h): 6.72; pIC50 (Plasmodium falciparum, K1, 48 h, read-out: Mean IC50): 6.72
9 | CO[C@H]1O[C@@H]2O[C@@]3(C)CC[C@H]4[C@H](C)CC[C@@H]([C@H]1C)[C@@]24OO3 [Artemether, artemether, reference compound] |  | 8.70 | pIC50 [3]: 8.55
10 | C[C@@H]1CC[C@H]2[C@@H](C)C(=O)O[C@@H]3O[C@@]4(C)CC[C@@H]1[C@]32OO4 [Artemisinin, reference compound] |  |  | pIC50 [3]: 7.91; pIC50 (Plasmodium falciparum, K1, 48 h, single determinations (triplicate), K1 strain, 48 h, read-out: IC50): 7.91
11 | C[C@H]1[C@@H](CCOCc2ccccc2COCC[C@H]2O[C@@H]3O[C@]4(C)CC[C@H]5[C@H](C)CC[C@@H]([C@H]2C)[C@@]35OO4)O[C@@H]2O[C@]3(C)CC[C@H]4[C@H](C)CC[C@@H]1[C@@]24OO3 [PV45] | 8.57 |  | 
12 | C[C@H]1[C@@H](CCOC(=O)c2ccc(C(=O)OCC[C@H]3O[C@@H]4O[C@]5(C)CC[C@H]6[C@H](C)CC[C@@H]([C@H]3C)[C@@]46OO5)cc2)O[C@@H]2O[C@]3(C)CC[C@H]4[C@H](C)CC[C@@H]1[C@@]24OO3 [PV32, 10-β-(2-Hydroxyethyl)-deoxoartemisinin bis-ester(1,4)-dimer] | 8.34 | 8.26 and 8.28 and 8.52 | 
